The source of these data is patent US9315458B2, “Nitrogen-containing heterocyclic compound” (Takeda Pharmaceutical Company Limited, priority 2014, dated 2016).

The target in this assay is T1, human M1 receptor (hCHRM1) (Homo sapiens, UniProt P11229).
T1 construct: expressed in transfected cells
T1 sequence (P11229 1-460): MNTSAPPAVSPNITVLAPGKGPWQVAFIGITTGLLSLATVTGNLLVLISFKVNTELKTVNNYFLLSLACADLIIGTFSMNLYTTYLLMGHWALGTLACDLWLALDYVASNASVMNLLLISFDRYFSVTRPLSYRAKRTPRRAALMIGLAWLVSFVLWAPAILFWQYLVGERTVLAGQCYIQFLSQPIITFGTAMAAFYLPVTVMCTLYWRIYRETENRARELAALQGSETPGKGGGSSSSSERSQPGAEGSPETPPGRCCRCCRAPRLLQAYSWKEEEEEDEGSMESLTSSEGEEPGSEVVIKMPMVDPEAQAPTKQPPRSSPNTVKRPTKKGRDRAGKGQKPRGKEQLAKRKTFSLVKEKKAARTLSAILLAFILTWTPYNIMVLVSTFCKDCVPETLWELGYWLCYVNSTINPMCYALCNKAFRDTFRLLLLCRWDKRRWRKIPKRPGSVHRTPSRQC
Kind of assay: Measurement of M1 receptor positive allosteric modulator (M1PAM) activity, calcium fluorescence (FLIPRtetra) with acetylcholine at EC20. The assay is classed as cell-based. Particulars: for activity (%) at 10 μM: 10 μM test compound, 100% = acetylcholine 1 μM, 0% = DMSO, acetylcholine at EC20; for EC50: inflection point of concentration-dependent curve, CHO-K1 cells expressing hCHRM1, acetylcholine at EC20 (final 0.6-0.8 nM), read-out: IP value. How it is done: The activity of a test compound in the presence of acetylcholine at EC20 concentration (final concentration 0.6-0.8 nM), which affords an action corresponding to about 20% of the maximum activity, was measured as PAM activity. The method is as follows. CHO-K1 cells stably expressing a human M1 receptor (hCHRM1) were plated on a 384-well black clear bottom plate (BD Falcon) at 5,000 cells/well, and cultured in an incubator at 37° C., 5% CO2 for 1 day. The medium in the cell plate was removed, and assay buffer A (Recording medium (DOJINDO LABORATORIES), 0.1% BSA (Wako Pure Chemical Industries, Ltd.), 2.5 μg/mL Fluo-4 AM (DOJINDO LABORATORIES), 0.08% Pluronic F127 (DOJINDO LABORATORIES), 1.25 mM probenecid (DOJINDO LABORATORIES)) containing a calcium indicator was added at 30 μL/well. The cells were left standing in the incubator at 37° C., 5% CO2 for 30 min, and further left standing at room temperature for 30 min. A test compound prepared by diluting with assay buffer B (HBSS (Invitrogen), 20 mM HEPES (Invitrogen), 0.1% BSA) containing 2.4-3.2 nM acetylcholine was added at 10 μL/well, and the fluorescence was measured by FLIPRtetra (Molecular Devices) for 1 min every 1 second. With the definition that the amount of change in the fluorescence on addition of acetylcholine (final concentration 1 μM) is 100% and that on addition of DMSO instead of a test compound is 0%, the activity (%) of the test compound was calculated, and the inflection point in the concentration-dependent curve of the test compound was calculated as IP values.

Each structure is given as a SMILES string.

Regarding `Cc1c(Cc2ccc(-n3cccn3)cc2)cc2c(c1C)CN([C@H]1CCCC[C@@H]1O)C2=O` (racemic) [Example 29, rac-2-(trans-2-hydroxycyclohexyl)-4,5-dimethyl-6-(4-(1H-pyrazol-1-yl)benzyl)isoindolin-1-one], the “activity (%) at 10 μM” value came out at 102% and the EC50 was determined as 9.5 nM.
As for `Cc1c(Cc2ccc(-c3cn(C)nn3)cc2)cc2c(c1C)CN(C[C@H]1CCCO1)C2=O` [Example 110, 4,5-dimethyl-6-(4-(1-methyl-1H-1,2,3-triazol-4-yl)benzyl)-2-((2R)-tetrahydrofuran-2-ylmethyl)isoindolin-1-one], the “activity (%) at 10 μM” value was 77% and the EC50 came out at 24 nM.
Consider `COc1cc2c(cc1Cc1ccc(-n3cccn3)cc1)C(=O)N([C@H]1CCCC[C@@H]1O)C2` (racemic) [Example 3, rac-2-(trans-2-hydroxycyclohexyl)-5-methoxy-6-(4-(1H-pyrazol-1-yl)benzyl)isoindolin-1-one], for which the “activity (%) at 10 μM” value came to 106% and the EC50 was found to be 15 nM.
Turning to `Cc1nn(C)cc1-c1ccc(Cc2cc3c(c(C)c2C)CN([C@H]2CCC[C@@H]2O)C3=O)c(F)c1` (racemic) [Example 95, rac-6-(4-(1,3-dimethyl-1H-pyrazol-4-yl)-2-fluorobenzyl)-2-(trans-2-hydroxycyclopentyl)-4,5-dimethylisoindolin-1-one], the “activity (%) at 10 μM” value was 92% and the EC50 came to 26 nM.
With `COc1c(Cc2ccc(-n3cccn3)cc2)cc2c(c1Cl)CN([C@H]1CCCC[C@@H]1O)C2=O` (racemic) [Example 12, rac-4-chloro-2-(trans-2-hydroxycyclohexyl)-5-methoxy-6-(4-(1H-pyrazol-1-yl)benzyl)isoindolin-1-one], the “activity (%) at 10 μM” value amounted to 91% and the EC50 turned out to be 7.7 nM.
For `Cc1c(Cc2ccc(-n3cccn3)cc2)cc2c(c1Cl)CN([C@H]1CCCC[C@@H]1O)C2=O` (racemic) [Example 93, rac-4-chloro-2-(trans-2-hydroxycyclohexyl)-5-methyl-6-(4-(1H-pyrazol-1-yl)benzyl)isoindolin-1-one], the “activity (%) at 10 μM” value stood at 94% and the EC50 was found to be 5.6 nM.
In the case of `CCc1cc2c(cc1Cc1ccc(-c3cn(C)nn3)cc1)C(=O)N(CC(C)(C)O)C2` [Example 118, 5-ethyl-2-(2-hydroxy-2-methylpropyl)-6-(4-(1-methyl-1H-1,2,3-triazol-4-yl)benzyl)isoindolin-1-one], the “activity (%) at 10 μM” value came to 106% and the EC50 amounted to 25 nM.
Regarding `CNC(=O)c1ccc(Cc2cc3c(c(C)c2C)CN([C@H]2COCC[C@@H]2O)C3=O)cc1F` [Example 19, 1,5-anhydro-2,4-dideoxy-2-(6-(3-fluoro-4-(methylcarbamoyl)benzyl)-4,5-dimethyl-1-oxo-1,3-dihydro-2H-isoindol-2-yl)-L-threo-pentitol], the “activity (%) at 10 μM” value is 101% and the EC50 is 2 nM.
As for `CNC(=O)c1ccc(Cc2cc3c(c(C)c2C)CN(CC(C)(C)O)C3=O)cc1F` [Example 138, 2-fluoro-4-((2-(2-hydroxy-2-methylpropyl)-6,7-dimethyl-3-oxo-2,3-dihydro-1H-isoindol-5-yl)methyl)-N-methylbenzamide], the “activity (%) at 10 μM” value was 106% and the EC50 was 25 nM.
Consider `Cc1c(Cc2ccc(-n3cccn3)cc2F)cc2c(c1C)CN(CC(C)(C)O)C2=O` [Example 121, 6-(2-fluoro-4-(1H-pyrazol-1-yl)benzyl)-2-(2-hydroxy-2-methylpropyl)-4,5-dimethylisoindolin-1-one], for which the “activity (%) at 10 μM” value is recorded as 89% and the EC50 is 22 nM.
For the molecule `O=C1c2cc(Cc3ccc(-n4cccn4)cc3)c(C(F)(F)F)c(Cl)c2CN1[C@H]1CCCC[C@@H]1O` (racemic) [Example 10, rac-4-chloro-2-(trans-2-hydroxycyclohexyl)-6-(4-(1H-pyrazol-1-yl)benzyl)-5-(trifluoromethyl)isoindolin-1-one], the “activity (%) at 10 μM” value turned out to be 106% and the EC50 came out at 66 nM.
As to `Cc1c(Cc2ccc(-n3cccn3)cc2)cc2c(c1C)CN([C@H]1CCC[C@@H]1O)C2=O` (racemic) [Example 34, rac-2-(trans-2-hydroxycyclopentyl)-4,5-dimethyl-6-(4-(1H-pyrazol-1-yl)benzyl)isoindolin-1-one], the “activity (%) at 10 μM” value is recorded as 108% and the EC50 was 18 nM.
In the same order, the values of `Cc1c(Cc2ccc(-n3cccn3)cc2)cc2c(c1Cl)CN([C@H]1CCC[C@@H]1O)C2=O` [Example 131, 4-chloro-2-((1S,2S)-2-hydroxycyclopentyl)-5-methyl-6-(4-(1H-pyrazol-1-yl)benzyl)isoindolin-1-one] are 100% and 12 nM.
For the molecule `CCc1ccc(Cc2cc3c(c(C)c2C)CN([C@H]2CCCC[C@@H]2O)C3=O)cn1` [Example 149, 6-((6-ethylpyridin-3-yl)methyl)-2-((1S,2S)-2-hydroxycyclohexyl)-4,5-dimethylisoindolin-1-one], the “activity (%) at 10 μM” value is listed as 99% and the EC50 was found to be 16 nM.
With `Cc1c(Cc2ccc(C#N)cc2)cc2c(c1C)CN([C@H]1CCCC[C@@H]1O)C2=O` [Example 155, 4-((2-((1S,2S)-2-hydroxycyclohexyl)-6,7-dimethyl-3-oxo-2,3-dihydro-1H-isoindol-5-yl)methyl)benzonitrile], the “activity (%) at 10 μM” value turned out to be 100% and the EC50 is 7.1 nM.
For `Cc1c(Cc2ccc(-n3cccn3)cc2)cc2c(c1C)CN(c1ncc(Cl)cc1F)C2=O` [Example 162, 2-(5-chloro-3-fluoropyridin-2-yl)-4,5-dimethyl-6-(4-(1H-pyrazol-1-yl)benzyl)isoindolin-1-one] the same measures were 95% and 66 nM.
`Cc1cc2c(cc1Cc1ccc(-c3cn(C)nc3C)nc1)C(=O)N([C@H]1CCCC[C@@H]1O)C2` (racemic) [Example 5, rac-6-((6-(1,3-dimethyl-1H-pyrazol-4-yl)pyridin-3-yl)methyl)-2-(trans-2-hydroxycyclohexyl)-5-methylisoindolin-1-one]: the “activity (%) at 10 μM” value is 102% and the EC50 came to 8.2 nM.
Regarding `COc1ccc(Cc2cc3c(c(Cl)c2C)CN([C@H]2CCC[C@@H]2O)C3=O)cc1` [Example 152, 4-chloro-2-((1S,2S)-2-hydroxycyclopentyl)-6-(4-methoxybenzyl)-5-methylisoindolin-1-one], the “activity (%) at 10 μM” value was determined as 91% and the EC50 came out at 47 nM.
On to `Cc1cc(-c2ccc(Cc3cc4c(cc3C)CN([C@H]3CCCC[C@@H]3O)C4=O)cn2)ccn1` (racemic) [Example 6, rac-2-(trans-2-hydroxycyclohexyl)-5-methyl-6-((2′-methyl-2,4′-bipyridin-5-yl)methyl)isoindolin-1-one], for which the “activity (%) at 10 μM” value amounted to 101% and the EC50 turned out to be 5.3 nM.
As for `COc1ccc(Cc2cc3c(c(Cl)c2C)CN([C@H]2CCCC[C@@H]2O)C3=O)cc1` [Example 151, 4-chloro-2-((1S,2S)-2-hydroxycyclohexyl)-6-(4-methoxybenzyl)-5-methylisoindolin-1-one], the “activity (%) at 10 μM” value was found to be 92% and the EC50 turned out to be 16 nM.
As for `O=C1c2cc(Cc3ccc(-n4cccn4)cc3)c(C3CC3)cc2CN1CC1CCCO1` (stereo not shown) [Example 62, 5-cyclopropyl-6-(4-(1H-pyrazol-1-yl)benzyl)-2-(tetrahydrofuran-2-ylmethyl)isoindolin-1-one], the “activity (%) at 10 μM” value is recorded as 103% and the EC50 was determined as 95 nM.
For `Cc1cc2c(cc1Cc1ccc(-c3cnn(C)c3)cc1)C(=O)N(CC1CCCO1)C2` (stereo not shown) [Example 68, 5-methyl-6-(4-(1-methyl-1H-pyrazol-4-yl)benzyl)-2-(tetrahydrofuran-2-ylmethyl)isoindolin-1-one], the “activity (%) at 10 μM” value stood at 95% and the EC50 amounted to 96 nM.
`Cc1c(Cc2ccc(-n3cccn3)cc2)cc2c(c1Cl)CN(CC(C)(C)O)C2=O` [Example 132, 4-chloro-2-(2-hydroxy-2-methylpropyl)-5-methyl-6-(4-(1H-pyrazol-1-yl)benzyl)isoindolin-1-one]: the “activity (%) at 10 μM” value was determined as 87% and the EC50 stood at 7.3 nM.
